For 19 compounds, IC50 results are on record in US12240844B2 (Voronoi, Inc., priority 2019, dated 2025).

A value given as a limit tells only on which side of the number the result lay.

What all share (type): biochemical
Experiment [1] addresses T1, human GST-DYRK1A (full length) (Homo sapiens, UniProt Q13627).
T1 construct: purified human GST-DYRK1A (full length, Thermo scientifics) enzyme; GST; purchased Thermo scientifics
The experiment in a line: GST-DYRK1A enzyme inhibition, ADP-Glo kinase assay. As to conditions: read-out: DYRK1 IC50. Put shortly:
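ADP-Glo luminescence quantified kinase activity after a 1 h, 25° C reaction of 10 ng full-length GST-tagged human DYRK1A, substrate and 10 uM ATP in Tris-HCl buffer pH 7.4 with MgCl2, BSA and DTT. Triplicate IC50 values (nM) calculated relative to untreated solvent control.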
A general note: ADP-Glo turns the ADP formed in a reaction into a luminescent signal.

In another experiment the target is LRRK2 (G2019S) (Homo sapiens, UniProt Q5S007, G2019S). As to the kind of experiment: LRRK2 G2019S enzyme inhibition, ADP-Glo kinase assay. The arrangement: purchased SignalChem L10-12GG. Put shortly: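 Activity read as ADP-Glo luminescence, normalized to untreated solvent control, with IC50 (nM) fitted over 12 final compound levels (top 50 μM). Reaction: 2 h, 25° C, human LRRK2 G2019S 16 ng, ATP 25 μM, substrate 0.2 μg, in Tris-HCl pH 7.4 with MgCl2, BSA and DTT.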

The target in the next experiment is T2, human GST-CLK1 (129-end) (Homo sapiens, UniProt P49759).
T2 construct: purified human GST-CLK1 (129-end, Signalchem) enzyme; GST; purchased Signalchem
As to the kind of experiment: GST-CLK1 enzyme inhibition, ADP-Glo kinase assay. Conditions: ATP 10 uM. Put shortly: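 ADP formation was read by ADP-Glo luminescence after 1 h at 25° C with 3 ng human GST-CLK1 (129-end), substrate and 10 uM ATP in Tris pH 7.4 buffer containing MgCl2, BSA and DTT. Inhibition relative to untreated solvent control gave IC50 (nM), run in triplicate.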

A further experiment concerns the target LRRK2 (Homo sapiens, UniProt Q5S007). As to the kind of experiment: LRRK2 enzyme inhibition, ADP-Glo kinase assay. On the set-up: purchased Invitrogen PR8604B. Put shortly:
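ADP-Glo luminescence read after 2 h at 25° C, 10 μM ATP, 25 ng purified human LRRK2 and […] substrate in Tris-HCl pH7.4 buffer with MgCl2, BSA, DTT. Twelve final concentrations, 50 μM down to 0.000001024 μM; IC50 (nM) from inhibition relative to untreated solvent control.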

T2 sequence (P49759 129-484 limits assumed): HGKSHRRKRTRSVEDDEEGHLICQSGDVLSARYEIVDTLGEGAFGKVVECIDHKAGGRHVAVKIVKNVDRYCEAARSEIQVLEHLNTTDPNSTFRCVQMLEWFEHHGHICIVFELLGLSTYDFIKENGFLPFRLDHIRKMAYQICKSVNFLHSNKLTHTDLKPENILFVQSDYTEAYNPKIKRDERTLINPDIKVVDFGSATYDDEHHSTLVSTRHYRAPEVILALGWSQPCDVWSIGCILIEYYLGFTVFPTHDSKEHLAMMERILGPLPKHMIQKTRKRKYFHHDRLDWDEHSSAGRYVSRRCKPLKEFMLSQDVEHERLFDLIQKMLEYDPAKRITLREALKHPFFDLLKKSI
Sequence of LRRK2 (Q5S007 970-2527 limits assumed): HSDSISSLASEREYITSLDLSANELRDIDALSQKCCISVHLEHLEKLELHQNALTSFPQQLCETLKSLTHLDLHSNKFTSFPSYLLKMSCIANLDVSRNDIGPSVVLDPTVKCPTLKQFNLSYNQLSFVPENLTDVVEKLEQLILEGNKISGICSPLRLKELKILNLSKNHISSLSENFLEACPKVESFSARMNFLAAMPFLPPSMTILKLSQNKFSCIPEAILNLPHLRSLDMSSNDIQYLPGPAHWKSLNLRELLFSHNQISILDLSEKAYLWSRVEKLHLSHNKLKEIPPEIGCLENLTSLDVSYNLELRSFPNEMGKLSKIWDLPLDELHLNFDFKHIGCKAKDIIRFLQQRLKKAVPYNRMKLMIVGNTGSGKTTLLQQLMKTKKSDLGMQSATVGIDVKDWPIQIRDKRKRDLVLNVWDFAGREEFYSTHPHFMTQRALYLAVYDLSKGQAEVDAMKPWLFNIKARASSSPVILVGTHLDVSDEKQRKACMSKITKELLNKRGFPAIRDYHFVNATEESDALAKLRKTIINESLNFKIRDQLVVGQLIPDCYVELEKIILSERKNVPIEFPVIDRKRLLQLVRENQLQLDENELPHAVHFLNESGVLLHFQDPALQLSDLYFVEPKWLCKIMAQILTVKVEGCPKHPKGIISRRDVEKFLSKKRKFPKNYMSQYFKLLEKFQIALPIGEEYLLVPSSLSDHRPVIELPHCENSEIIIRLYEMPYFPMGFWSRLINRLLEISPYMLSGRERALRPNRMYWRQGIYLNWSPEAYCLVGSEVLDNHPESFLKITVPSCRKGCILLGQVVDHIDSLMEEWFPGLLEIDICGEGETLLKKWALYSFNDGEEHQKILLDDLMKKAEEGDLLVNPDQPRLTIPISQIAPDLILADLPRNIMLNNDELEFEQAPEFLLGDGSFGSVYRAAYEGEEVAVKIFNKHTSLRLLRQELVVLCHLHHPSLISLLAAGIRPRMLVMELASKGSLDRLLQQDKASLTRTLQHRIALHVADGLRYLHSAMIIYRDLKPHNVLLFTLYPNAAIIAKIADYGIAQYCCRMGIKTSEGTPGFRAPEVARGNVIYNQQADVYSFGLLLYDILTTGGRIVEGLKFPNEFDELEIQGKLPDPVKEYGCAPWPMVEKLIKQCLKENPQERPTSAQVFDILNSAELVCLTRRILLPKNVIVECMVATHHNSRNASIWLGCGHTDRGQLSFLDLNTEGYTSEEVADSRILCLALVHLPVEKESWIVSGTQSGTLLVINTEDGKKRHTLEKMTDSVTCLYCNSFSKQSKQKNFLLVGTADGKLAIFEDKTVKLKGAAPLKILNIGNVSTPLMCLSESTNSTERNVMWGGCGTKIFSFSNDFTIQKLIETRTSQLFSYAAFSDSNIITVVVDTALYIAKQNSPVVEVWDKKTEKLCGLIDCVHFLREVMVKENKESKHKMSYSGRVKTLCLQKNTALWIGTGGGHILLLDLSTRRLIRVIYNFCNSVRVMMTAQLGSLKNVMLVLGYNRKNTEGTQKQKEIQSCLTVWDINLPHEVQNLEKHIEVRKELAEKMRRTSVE
Sequence of LRRK2 (G2019S) (Q5S007 970-2527 G2019S limits assumed): as the sequence (Q5S007 970-2527 limits assumed) above, with G1050S counted along it

The IC50 is the concentration at which inhibition is half-maximal. With `CNc1cc(Nc2ccc(C(=O)N3CCOCC3)c3c2OCC3)nc2[nH]cc(C(F)(F)F)c12` [Example 52, (7-((4-(methylamino)-3-(trifluoromethyl)-1H-pyrrolo[2,3-b]pyridin-6-yl)amino)-2,3-dihydrobenzofuran-4-yl)(morpholino) methanone], the IC50 (in experiment [1]; against LRRK2 (G2019S); at human GST-CLK1 (129-end); on LRRK2) was below 100 nM throughout.
Turning to `COCCNc1cc(Nc2ccc(S(C)(=O)=O)cc2OC)nc2[nH]cc(C(F)(F)F)c12` [Example 201, N^6-(2-methoxy-4-(methylsulfonyl)phenyl)-N^4-(2-methoxyethyl)-3-(trifluoromethyl)-1H-pyrrolo[2,3-b]pyridine-4,6-diamine], the IC50 in experiment [1] lay within 301 to 1000 nM; against LRRK2 (G2019S) it was 301 to 1000 nM; against human GST-CLK1 (129-end), 301 to 1000 nM; on LRRK2 it was 101 to 300 nM.
`CCCNc1cc(Nc2ccc(C(=O)N3CCOCC3)c3c2OCCO3)nc2[nH]cc(C#N)c12` [Example 108, 6-((8-(morpholine-4-carbonyl)-2,3-dihydrobenzo[b] [1,4]dioxin-5-yl)amino)-4-(propylamino)-1H-pyrrolo[2,3-b]pyridine-3-carbonitrile]: the IC50 was 301 to 1000 nM in experiment [1], below 100 nM against LRRK2 (G2019S), 301 to 1000 nM on human GST-CLK1 (129-end) and below 100 nM against LRRK2.
`CCCNc1cc(Nc2ccc(S(C)(=O)=O)cc2OC)nc2[nH]ccc12` [Example 27, N^6-(2-methoxy-4-(methylsulfonyl)phenyl)-N^4-propyl-1H-pyrrolo[2,3-b]pyridine-4,6-diamine]: the IC50 is 301 to 1000 nM in experiment [1], below 100 nM on LRRK2 (G2019S), 301 to 1000 nM against human GST-CLK1 (129-end) and below 100 nM on LRRK2.
As to `CNc1cc(Nc2ccc(S(C)(=O)=O)cc2OC)nc2[nH]cc(C#N)c12` [Example 123], the IC50 in experiment [1] was 301 to 1000 nM; on LRRK2 (G2019S), below 100 nM; against human GST-CLK1 (129-end), 301 to 1000 nM; on LRRK2, below 100 nM.
In the case of `COCCNc1cc(Nc2ccc(C(=O)N3CCC(N4CCOCC4)CC3)c3c2OCCO3)nc2[nH]cc(C#N)c12` [Example 118, 4-((2-methoxyethyl)amino)-6-((8-(4-morpholinopiperidine-1-carbonyl)-2,3-dihydrobenzo [b] [1,4]dioxin-5-yl)amino)-1H-pyrrolo[2,3-b]pyridine-3-carbonitrile], the IC50 is 301 to 1000 nM in experiment [1], below 100 nM against LRRK2 (G2019S), below 100 nM on human GST-CLK1 (129-end) and below 100 nM at LRRK2.
With `CNc1cc(Nc2ccc(C(=O)N3CCC(N4CCOCC4)CC3)c3c2OCCO3)nc2[nH]cc(C#N)c12` [Example 115, 4-(methylamino)-6-((8-(4-morpholinopiperidine-1-carbonyl)-2,3-dihydrobenzo[b] [1,4]dioxin-5-yl)amino)-1H-pyrrolo[2,3-b]pyridine-3-carbonitrile], the IC50 is 101 to 300 nM in experiment [1], below 100 nM against LRRK2 (G2019S), 101 to 300 nM at human GST-CLK1 (129-end) and below 100 nM against LRRK2.
Regarding `COCCNc1cc(Nc2ccc(C(=O)N3CCOCC3)c3c2OCCO3)nc2[nH]cc(C#N)c12` [Example 109, 4-((2-methoxyethyl)amino)-6-((8-(morpholine-4-carbonyl)-2,3-dihydrobenzo[b] [1,4]dioxin-5-yl)amino)-1H-pyrrolo[2,3-b]pyridine-3-carbonitrile], the IC50 (in experiment [1]; against LRRK2 (G2019S); against human GST-CLK1 (129-end); against LRRK2) was below 100 nM throughout.
Turning to `CS(=O)(=O)CCNc1cc(Nc2ccc(C(=O)N3CCC(N4CCOCC4)CC3)c3c2OCCO3)nc2[nH]cc(C(F)(F)F)c12` [Example 165, (8-((4-((2-(methylsulfonyl)ethyl)amino)-3-(trifluoromethyl)-1H-pyrrolo[2,3-b]pyridin-6-yl)amino)-2,3-dihydrobenzo[b] [1,4]dioxin-5-yl)(4-morpholinopiperidin-1-yl)methanone], the IC50 (in experiment [1]; against LRRK2 (G2019S); at human GST-CLK1 (129-end); against LRRK2) was below 100 nM throughout.
As for `O=C(c1ccc(Nc2cc(NC3CCCCC3)c3c(C(F)(F)F)c[nH]c3n2)c2c1OCCO2)N1CCOCC1` [Example 154, (8-((4-(cyclohexylamino)-3-(trifluoromethyl)-1H-pyrrolo[2,3-b]pyridin-6-yl)amino)-2,3-dihydrobenzo[b] [1,4]dioxin-5-yl)(morpholino) methanone], the IC50 (in experiment [1]; at LRRK2 (G2019S); at human GST-CLK1 (129-end); on LRRK2) was 301 to 1000 nM in each case.
Take `CNc1cc(Nc2ccc(S(=O)(=O)N3CCOCC3)cc2OC)nc2[nH]cc(Cl)c12` [Example 64, 3-chloro-N^6-(2-methoxy-4-(morpholinosulfonyl)phenyl)-N^4-methyl-1H-pyrrolo[2,3-b]pyridine-4,6-diamine]: the IC50 (in experiment [1]; on LRRK2 (G2019S); against human GST-CLK1 (129-end); on LRRK2) was 301 to 1000 nM each time.
Take `CNc1cc(Nc2ccc(C(=O)N3CCOCC3)c3c2OCCO3)nc2[nH]cc(C#N)c12` [Example 106, 4-(methylamino)-6-((8-(morpholine-4-carbonyl)-2,3-dihydrobenzo[b] [1,4]dioxin-5-yl)amino)-1H-pyrrolo[2,3-b]pyridine-3-carbonitrile]: the IC50 in experiment [1] was 301 to 1000 nM; at LRRK2 (G2019S) it was below 100 nM; against human GST-CLK1 (129-end), 301 to 1000 nM; against LRRK2, below 100 nM.
With `COc1cc(S(C)(=O)=O)ccc1Nc1cc(NC2CC2)c2c(C#N)c[nH]c2n1` [Example 122, 4-(cyclopropylamino)-6-((2-methoxy-4-(methylsulfonyl)phenyl)amino)-1H-pyrrolo[2,3-b]pyridine-3-carbonitrile], the IC50 in experiment [1] is 301 to 1000 nM; at LRRK2 (G2019S), 101 to 300 nM; against human GST-CLK1 (129-end) it was 301 to 1000 nM; against LRRK2, below 100 nM.
Regarding `CC(C)CNc1cc(Nc2ccc(C(=O)N3CCOCC3)c3c2OCCO3)nc2[nH]cc(C(F)(F)F)c12` [Example 156, (8-((4-(isobutylamino)-3-(trifluoromethyl)-1H-pyrrolo[2,3-b]pyridin-6-yl)amino)-2,3-dihydrobenzo[b] [1,4]dioxin-5-yl)(morpholino) methanone], the half-inhibitory concentration (IC50) in experiment [1] was 301 to 1000 nM; against LRRK2 (G2019S), 301 to 1000 nM; on human GST-CLK1 (129-end), 301 to 1000 nM; against LRRK2, below 100 nM.
As for `CNc1cc(Nc2ccc(S(=O)(=O)N3CCOCC3)cc2OC)nc2[nH]cc(C(F)(F)F)c12` [Example 177, N^6-(2-methoxy-4-(morpholinosulfonyl)phenyl)-N^4-methyl-3-(trifluoromethyl)-1H-pyrrolo[2,3-b]pyridine-4,6-diamine], the concentration for half-maximal inhibition (IC50) (in experiment [1]; on LRRK2 (G2019S); against human GST-CLK1 (129-end); against LRRK2) was 301 to 1000 nM each time.
Consider `COc1cc(S(C)(=O)=O)ccc1Nc1cc(NCC(C)C)c2cc[nH]c2n1` [Example 29, N^4-isobutyl-N^6-(2-methoxy-4-(methylsulfonyl)phenyl)-1H-pyrrolo[2,3-b]pyridine-4,6-diamine], for which the IC50 is 301 to 1000 nM in experiment [1], 101 to 300 nM at LRRK2 (G2019S), 301 to 1000 nM against human GST-CLK1 (129-end) and below 100 nM on LRRK2.
Regarding `COc1cc(S(C)(=O)=O)ccc1Nc1cc(NC2CC2)c2c(C(F)(F)F)c[nH]c2n1` [Example 187, N^4-cyclopropyl-N^6-(2-methoxy-4-(methylsulfonyl)phenyl)-3-(trifluoromethyl)-1H-pyrrolo[2,3-b]pyridine-4,6-diamine], the IC50 (in experiment [1]; against LRRK2 (G2019S); at human GST-CLK1 (129-end); on LRRK2) was 301 to 1000 nM in each case.
With `CNc1cc(Nc2ccc(S(C)(=O)=O)cc2OC)nc2[nH]cc(C(F)(F)F)c12` [Example 178, N^6-(2-methoxy-4-(methylsulfonyl)phenyl)-N^4-methyl-3-(trifluoromethyl)-1H-pyrrolo[2,3-b]pyridine-4,6-diamine], the IC50 was below 100 nM in experiment [1], 301 to 1000 nM on LRRK2 (G2019S), 301 to 1000 nM against human GST-CLK1 (129-end) and 301 to 1000 nM on LRRK2.
On to `COc1cc(S(C)(=O)=O)ccc1Nc1cc(NCCS(C)(=O)=O)c2c(C(F)(F)F)c[nH]c2n1` [Example 193, N^6-(2-methoxy-4-(methylsulfonyl)phenyl)-N^4-(2-(methylsulfonyl)ethyl)-3-(trifluoromethyl)-1H-pyrrolo[2,3-b]pyridine-4,6-diamine], for which the IC50 was below 100 nM in experiment [1], 301 to 1000 nM against LRRK2 (G2019S), below 100 nM against human GST-CLK1 (129-end) and 301 to 1000 nM on LRRK2.
